Values of other authors as cited in US20220175648A1, “TOPICAL FORMULATIONS WITH LIPID-BASED CARRIERS” (KATE ROSE LLC, priority 2020, published 2022).

How the values were obtained:
[1] = after just one year
age spots = settings: 10% solution
[2] = system: UV B and reactive oxygen species; settings: in vitro studies
collagen synthesis = settings: versus L-ascorbic acid at the same dosage

break down of L-ascorbic acid [1] | SMILES | presence of age spots (age spots) | protection against UV B and reactive oxygen species [2] | increase of collagen synthesis (collagen synthesis)
20% | O=C1O[C@H]([C@@H](O)CO)C(O)=C1O [L-ascorbic acid] | – | – | –
– | CCCCCCCCC(CCCCCC)C(=O)OC[C@H](OC(=O)C(CCCCCC)CCCCCCCC)[C@H]1OC(=O)C(OC(=O)C(CCCCCC)CCCCCCCC)=C1OC(=O)C(CCCCCC)CCCCCCCC (stereo partly shown) [THD, Tetrahexyldecyl ascorbate] | decreases the presence of age spots | effective at protecting against UV B and reactive oxygen species | up to two times greater than L-ascorbic acid
